What is called pIC50 is the negative decadic logarithm of the IC50, by convention in mol/L.

Assay [1] in a line: Inhibition of FLT3 ITD/D835V double mutant (unknown origin) expressed in mouse BaF3 cells assessed as antiproliferative activity incubated for 72 hrs by CCK8 assay. For orientation: Tetrazolium dyes change colour on reduction, which living cells bring about.
Assay [2] is described as follows: Inhibition of FLT3 ITD mutant (unknown origin) expressed in mouse BaF3 cells assessed as antiproliferative activity incubated for 72 hrs by CCK8 assay.
Assay [3] can be described thus: Inhibition of TEL-FLT3 D835V mutant (unknown origin) expressed in mouse BaF3 cells assessed as antiproliferative activity incubated for 72 hrs by CCK8 assay.

pIC50: −log10 of the molar value.

Take `Cc1c(NC(=O)CCN2CCCC2)c[nH]c1/C=C1\C(=O)Nc2ccc(F)cc21`: the pIC50 in assay [1] is 7.57; in assay [2], 7.89; in assay [3], 7.52.
